In publication PMC9779571, “Guanidine Derivatives Containing the Chalcone Skeleton Are Potent Antiproliferative Compounds against Human Leukemia Cells” (International Journal of Molecular Sciences, 2022):
Values joined by “and” are separate entries in the source; they are usually repeats but may differ in a detail not shown here. Identical values can stand only once.

Key:
Assay type in all cases: cell-based, human
[1] = test system: caspases-3/7, -8, and -9 in U-937 cells; assay: Caspase activity in lysates of treated cells (colorimetric tetrapeptide substrates); conditions: U-937, 10 µM, 24 h
Experimental: Caspase activity was determined by measuring proteolytic cleavage of specific chromogenic substrates as previously described. Briefly, cells were treated with the specified guanidines for 24 h, harvested by centrifugation (1000× g for 5 min at 4 °C), washed twice with PBS, resuspended in lysis buffer (50 mM HEPES, pH 7.4, 0.1 mM EDTA, 1 mM dithiothreitol, and 0.1% Chaps), spun (17,000× g for 10 min at 4 °C) and the supernatants were normalized by protein concentration and used to determine enzyme activity. The net increase in absorbance at 405 nm after incubation at 37 °C was indicative of caspase activity. The colorimetric substrates were DEVD-pNA (for caspase-3 like protease activity), IETD-pNA (for caspase-8 activity), and LEHD-pNA (for caspase-9 activity).

MOLT-3 cells = assay: MTT cytotoxicity assay, MOLT-3; conditions: means ± SEM
Excerpt: (§1) U-937, HL-60, MOLT-3, NALM-6, and SK-MEL-1 cells were from DSMZ (German Collection of Microorganisms and Cell Cultures, Braunschweig, Germany). U-937/Bcl-2 cells were kindly provided by Dr. Jacqueline Bréard (INSERM U749, Faculté de Pharmacie Paris-Sud, Châtenay-Malabry, France). The U-937 is a pro-monocytic, human promyelocytic leukemia cell line that was isolated from a histiocytic lymphoma. HL-60 is a human acute myeloid leukemia cell line. MOLT-3 is a human acute lymphoblastic leukemia cell line. NALM-6 is a human B cell precursor leukemia. SK-MEL-1 is a human melanoma cell line growing singly or in clumps (occasional giant, polynucleated cell) in suspension. Cells were cultured in RPMI 1640 medium containing 10% (v/v) heat-inactivated fetal bovine serum, 100 μg/mL streptomycin, and 100 U/mL penicillin, incubated at 37 °C in a humidified atmosphere containing 5% CO2 as described. The doubling times of the cell lines were 24 h in HL-60, 30 h in U-937, U-937/Bcl-2, 40 h in MOLT-3 and NALM-6, and several days in SK-MEL-1 cells. Human peripheral blood mononuclear cells (PBMC) were isolated from heparin-anticoagulated blood of healthy volunteers by centrifugation with Ficoll-Paque Plus (GE Healthcare Bio-Sciences AB, Uppsala, Sweden). PBMC were also stimulated with phytohemagglutinin (2 µg/mL) for 48 h before the experimental treatment. The trypan blue exclusion method was used for counting the cells by a hemocytometer with 95% viability in all the experiments. Compounds were dissolved in dimethyl sulfoxide (DMSO) and kept under dark conditions at 25 °C. […] The cytotoxicity of the synthetic compounds was evaluated by colorimetric 3-(4,5-dimethyl-2-thiazolyl-)-2,5-diphenyl-2H-tetrazolium bromide (MTT) assay as previously described. Briefly, cells (5000 per well) were incubated with increasing concentrations of compounds for 72 h into a 96-well plate. Then, the supernatants were removed and 0.5 mg/mL MTT was added and incubated for 4 h at 37 °C. Sodium dodecyl sulfate (10% w/v) in 0.05 M HCl was added to solubilize the reaction products and the absorbance was measured at 570 nm with a reference wavelength of […] using an ELISA reader (Bio-Rad, Hercules, CA, USA). The IC50 values (concentrations inducing a 50% inhibition of cell viability) were determined graphically for each experiment by a nonlinear regression using the curve fitting routine implemented within the software Prism 5.0 (GraphPad, La Jolla, CA, USA).

U-937 leukemia cells = assay: Cell cycle and sub-G1 analysis by flow cytometry (propidium iodide); conditions: 24 h; for fold increase of sub-G1 cells over control / %G1 / %G2-M / %S / %Sub-G1: 10 µM; for fold increase of sub-G1 cells over control: U-937; for %G1 / %G2-M / %S / %Sub-G1: U-937, means ± S.E.; for cell cycle arrest: U-937, 10 µM
Experimental: (§2) Cells (2.5 × 10^5) were centrifuged for 10 min at 500× g, washed with cold PBS, fixed with ice-cold 75% ethanol and stored at −20 °C overnight. Samples were then centrifuged at 500× g for 10 min at 4 °C, washed with PBS, resuspended in 200 μL of PBS containing 100 μg/mL RNase and 50 μg/mL propidium iodide and incubated for 1 h in the dark. The DNA content was analyzed by flow cytometry with a BD FACSVerse^TM cytometer (BD Biosciences, San Jose, CA, USA). Apoptosis was also evaluated by flow cytometric analysis of double-staining annexin V-FITC and propidium iodide cells as previously described.

PBMC = assay: Annexin V-FITC/propidium iodide flow cytometry, PBMC; conditions: 24 h; for annexin V-FITC positive cells with respect to control: 3 µM; for fold increase of annexin V-FITC positive cells with respect to control / annexin V-FITC positive cells: 10 µM; for annexin V-FITC positive cells: control 9.3%
Excerpt: as §1, §2

U-937/Bcl-2 cells = assay: MTT cytotoxicity assay, U-937/Bcl-2; conditions: means ± SEM
Excerpt: as §1

NALM-6 cells = assay: MTT cytotoxicity assay, NALM-6; conditions: 72 h, MTT, means ± SEM
Excerpt: as §1

U-937 cells = assay: Annexin V-FITC/propidium iodide flow cytometry, U-937; conditions: U-937, 10 µM, 24 h; for annexin V-FITC positive cells: control 3.5%
Experimental: as §2

SK-MEL-1 cells = assay: MTT cytotoxicity assay, SK-MEL-1; conditions: means ± SEM
Excerpt: as §1

| Compound | caspase-8 activation [1] | increase of caspase-3/7 and caspase-9 activities compared with control [1] | IC50 (MOLT-3 cells; Homo sapiens, MOLT-3, 72 h) | fold increase of sub-G1 cells over control (U-937 leukemia cells) | %G1 (U-937 leukemia cells) | %G2-M (U-937 leukemia cells) | %S (U-937 leukemia cells) | %Sub-G1 (U-937 leukemia cells) | cell cycle arrest (U-937 leukemia cells) | annexin V-FITC positive cells with respect to control (PBMC) | fold increase of annexin V-FITC positive cells with respect to control (PBMC) | annexin V-FITC positive cells (PBMC) | IC50 (U-937/Bcl-2 cells; Homo sapiens, U-937, 72 h) | IC50 (NALM-6 cells; Homo sapiens, NALM-6, 72 h) | fold increase of annexin V-FITC positive cells over control (U-937 cells) | annexin V-FITC positive cells (U-937 cells) | IC50 (SK-MEL-1 cells; Homo sapiens, SK-MEL-1, 72 h) | other results |
| --- | --- | --- | --- | --- | --- | --- | --- | --- | --- | --- | --- | --- | --- | --- | --- | --- | --- | --- |
| Cc1ccc(S(=O)(=O)NC(=Nc2ccc(/C=C/C(=O)c3c(O)cccc3OCc3ccccc3)cc2)N2CCN(C)CC2)cc1 [Compound 6f] | less activated | approximately three-fold | 1.5 µM | ~ 10 fold | 35.2 ± 3.8 % | 10.8 ± 1.6% | 28.3 ± 0.2% | 25.1% and 25.1 ± 2.6 % | not caused by a significant cell cycle arrest in any phase | hardly increased | 3 fold | 27% | 2.2 ± 0.8 µM | 2.7 µM | 11 fold | 38% | 4.5 ± 0.4 µM |  |
| O=C(/C=C/c1ccc(N=C(Nc2ccccc2)N2CCCCC2)cc1)c1c(O)cccc1OCc1ccccc1 [Compound 6i] | less activated | two-fold | < 10 µM | ~ 13 fold | 35.9 ± 2.1 % | 8.4 ± 0.1 % | 23.6 ± 2.4 % | 31.6% and 31.6 ± 4.5 % | not caused by a significant cell cycle arrest in any phase | hardly increased | 1.4 fold | 13% | < 10 µM | ~10 µM | 10 fold | 36% | ~10 µM | IC50 (MOLT-3 cells; 72 h): 7.1 ± 1.3 µM; IC50 (U-937/Bcl-2 cells; 72 h): 5.1 ± 1.8 µM; IC50 (NALM-6 cells): 10.8 ± 0.5 µM; IC50 (SK-MEL-1 cells; 72 h): 13.8 ± 1.2 µM |
